Data reported in the supplement of paper PMC11208160.

Test: recombinant UMI read abundance after kanamycin selection (control-corrected) (log10(CPM+1)); higher = more efficient recombination; extreme values may be limits of the assay; sequences stand for … in AGTGCAGAGAAAATCGGCCAGTTTTCTCTGCCTGCAGTCCGCATGCCGTGGGACCCCTTGGGTTCTAACCTGTTGCCTAGATTTATGCAGCGGACTGCCTTTCTCCCAAAGTGATAAACCGG…AGGTTGGTTTCACT; site = the 11-nt donor
Procedure, shortened: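 Values, expressed as log10(CPM+1), derive from recombinant UMI counts converted to CPM, averaged across replicates and scaled by control-derived factors. Plating was with IPTG (0.07 mM) plus kanamycin or unselected, two replicates each. The screen pooled donor and donor-binding-loop pairs for the IS621 bridge recombinase in Escherichia coli.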
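Also: IS621 bridge recombinase in Escherichia coli cells against a fixed T5 target plasmid.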

Row | Sequence | recombinant UMI read abundance (log10)
1 | GTATAGACATGGACCGGTTTTCCCGGTAATCCGTATTTGCC (site GCATAGACTGG) | 2.19
2 | GTATAGACATGGACCGGTTTTCCCGGTAATCCGTATTTGCC (site GGATAGACTGG) | 0.251
3 | GTATAGACATGGACCGGTTTTCCCGGTAATCCGTATTTGCC (site GTATAGACTGG) | 2.83
4 | GTATATCCATGGACCGGTTTTCCCGGTAATCCGTATTTGGT (site GTATATCCTAC) | 1.08
5 | GTATCAACATGGACCGGTTTTCCCGGTAATCCGTATTTGAA (site GTATCAACTTT) | 1.01
6 | GTATCCACATGGACCGGTTTTCCCGGTAATCCGTATTTGTA (site GTATACACTTA) | 0.926
7 | GTATCCACATGGACCGGTTTTCCCGGTAATCCGTATTTGTA (site GTATCCACTTA) | 1.94
8 | GTATCCACATGGACCGGTTTTCCCGGTAATCCGTATTTGTA (site GTATGCACTTA) | 0.019
9 | GTATCCACATGGACCGGTTTTCCCGGTAATCCGTATTTGTA (site GTATTCACTTA) | 0.00595
10 | GTATGAACATGGACCGGTTTTCCCGGTAATCCGTATTTGTA (site GTATGAACTTA) | 2.42
11 | GTATGAACATGGACCGGTTTTCCCGGTAATCCGTATTTGTA (site GTATGCACTTA) | 0.00699
12 | GTATGAACATGGACCGGTTTTCCCGGTAATCCGTATTTGTA (site GTATGGACTTA) | 0.255
13 | GTATGAACATGGACCGGTTTTCCCGGTAATCCGTATTTGTA (site GTATGTACTTA) | 0
14 | GTATGATCATGGACCGGTTTTCCCGGTAATCCGTATTTGGG (site GTATGATCTCC) | 0.738
15 | GTATGCACATGGACCGGTTTTCCCGGTAATCCGTATTTGTG (site GTATGCACTAA) | 0.198
16 | GTATGCACATGGACCGGTTTTCCCGGTAATCCGTATTTGTG (site GTATGCACTCA) | 1.34
17 | GTATGCACATGGACCGGTTTTCCCGGTAATCCGTATTTGTG (site GTATGCACTGA) | 0.881
18 | GTATGCACATGGACCGGTTTTCCCGGTAATCCGTATTTGTG (site GTATGCACTTA) | 1.29
19 | GTATGCCCATGGACCGGTTTTCCCGGTAATCCGTATTTGTA (site GTATGCACTTA) | 0.0189
20 | GTATGCCCATGGACCGGTTTTCCCGGTAATCCGTATTTGTA (site GTATGCCCTTA) | 0.172
21 | GTATGCCCATGGACCGGTTTTCCCGGTAATCCGTATTTGTA (site GTATGCGCTTA) | 0.0563
22 | GTATGCCCATGGACCGGTTTTCCCGGTAATCCGTATTTGTA (site GTATGCTCTTA) | 1.76
23 | GTATGCTCATGGACCGGTTTTCCCGGTAATCCGTATTTGTA (site GTATGCACTTA) | 0.29

Row | Sequence | recombinant UMI read abundance (log10)
24 | GTATGCTCATGGACCGGTTTTCCCGGTAATCCGTATTTGTA (site GTATGCCCTTA) | 1.2
25 | GTATGCTCATGGACCGGTTTTCCCGGTAATCCGTATTTGTA (site GTATGCGCTTA) | 0.0181
26 | GTATGCTCATGGACCGGTTTTCCCGGTAATCCGTATTTGTA (site GTATGCTCTTA) | 2.99
27 | GTATTCGCATGGACCGGTTTTCCCGGTAATCCGTATTTGCG (site GTAATCGCTCG) | 0.015
28 | GTATTCGCATGGACCGGTTTTCCCGGTAATCCGTATTTGCG (site GTACTCGCTCG) | 0.406
29 | GTATTCGCATGGACCGGTTTTCCCGGTAATCCGTATTTGCG (site GTAGTCGCTCG) | 0.00852
30 | GTATTCGCATGGACCGGTTTTCCCGGTAATCCGTATTTGCG (site GTATTCGCTCG) | 0.984
31 | GTCAATCCATGGACCGGTTTTCCCGGTAATCCGTATTTGAA (site GACAATCCTTT) | 0
32 | GTCAATCCATGGACCGGTTTTCCCGGTAATCCGTATTTGAA (site GCCAATCCTTT) | 0.306
33 | GTCAATCCATGGACCGGTTTTCCCGGTAATCCGTATTTGAA (site GGCAATCCTTT) | 0.51
34 | GTCAATCCATGGACCGGTTTTCCCGGTAATCCGTATTTGAA (site GTCAATCCTTT) | 1.07
35 | GTCACCCCATGGACCGGTTTTCCCGGTAATCCGTATTTGGT (site GTCACCCCTAC) | 0.425
36 | GTCACGACATGGACCGGTTTTCCCGGTAATCCGTATTTGAT (site GTCACGACTAT) | 1.77
37 | GTCACGACATGGACCGGTTTTCCCGGTAATCCGTATTTGGC (site GTCACGACTGC) | 1.65
38 | GTCATATCATGGACCGGTTTTCCCGGTAATCCGTATTTGTG (site GTCATATCTCA) | 2.31
39 | GTCCATGCATGGACCGGTTTTCCCGGTAATCCGTATTTGGT (site GTACATGCTAC) | 0.0101
40 | GTCCATGCATGGACCGGTTTTCCCGGTAATCCGTATTTGGT (site GTCCATGCTAC) | 0.891
41 | GTCCATGCATGGACCGGTTTTCCCGGTAATCCGTATTTGGT (site GTGCATGCTAC) | 0.0138
42 | GTCCATGCATGGACCGGTTTTCCCGGTAATCCGTATTTGGT (site GTTCATGCTAC) | 0.00783
43 | GTCCCCACATGGACCGGTTTTCCCGGTAATCCGTATTTGCC (site GTCCCCACTGG) | 2.05
44 | GTCCCGACATGGACCGGTTTTCCCGGTAATCCGTATTTGCA (site GTCCCGACTTG) | 1.54
45 | GTCGAATCATGGACCGGTTTTCCCGGTAATCCGTATTTGTT (site GTCGAATCTAA) | 2.52
46 | GTCGAGGCATGGACCGGTTTTCCCGGTAATCCGTATTTGTG (site GTAGAGGCTCA) | 0.867

Row | Sequence | recombinant UMI read abundance (log10)
47 | GTCGAGGCATGGACCGGTTTTCCCGGTAATCCGTATTTGTG (site GTCGAGGCTCA) | 0.765
48 | GTCGAGGCATGGACCGGTTTTCCCGGTAATCCGTATTTGTG (site GTGGAGGCTCA) | 0.0124
49 | GTCGAGGCATGGACCGGTTTTCCCGGTAATCCGTATTTGTG (site GTTGAGGCTCA) | 0.0142
50 | GTCGCATCATGGACCGGTTTTCCCGGTAATCCGTATTTGGA (site GTCGCATCTTC) | 2.05
51 | GTCGCTCCATGGACCGGTTTTCCCGGTAATCCGTATTTGGG (site GTCGCTCCTCC) | 0.0316
52 | GTCGGTCCATGGACCGGTTTTCCCGGTAATCCGTATTTGAA (site GTCGGTCCTTT) | 0.0112
53 | GTCTGAGCATGGACCGGTTTTCCCGGTAATCCGTATTTGGA (site GTCTGAGCTTC) | 0.754
54 | GTGAAGCCATGGACCGGTTTTCCCGGTAATCCGTATTTGGG (site GAGAAGCCTCC) | 0.0044
55 | GTGAAGCCATGGACCGGTTTTCCCGGTAATCCGTATTTGGG (site GCGAAGCCTCC) | 0.0113
56 | GTGAAGCCATGGACCGGTTTTCCCGGTAATCCGTATTTGGG (site GGGAAGCCTCC) | 0.00817
57 | GTGAAGCCATGGACCGGTTTTCCCGGTAATCCGTATTTGGG (site GTGAAGCCTCC) | 0.00505
58 | GTGAAGGCATGGACCGGTTTTCCCGGTAATCCGTATTTGTG (site GTGAAGGCTCA) | 2.12
59 | GTGAAGGCATGGACCGGTTTTCCCGGTAATCCGTATTTGTG (site GTGCAGGCTCA) | 0.498
60 | GTGAAGGCATGGACCGGTTTTCCCGGTAATCCGTATTTGTG (site GTGGAGGCTCA) | 1.02
61 | GTGAAGGCATGGACCGGTTTTCCCGGTAATCCGTATTTGTG (site GTGTAGGCTCA) | 0.977
62 | GTGAATGCATGGACCGGTTTTCCCGGTAATCCGTATTTGGT (site GTGAATGCTAC) | 2.73
63 | GTGAATGCATGGACCGGTTTTCCCGGTAATCCGTATTTGGT (site GTGCATGCTAC) | 0.318
64 | GTGAATGCATGGACCGGTTTTCCCGGTAATCCGTATTTGGT (site GTGGATGCTAC) | 1.94
65 | GTGAATGCATGGACCGGTTTTCCCGGTAATCCGTATTTGGT (site GTGTATGCTAC) | 1.4
66 | GTGACGCCATGGACCGGTTTTCCCGGTAATCCGTATTTGTG (site GTGACGCCTCA) | 0
67 | GTGAGTACATGGACCGGTTTTCCCGGTAATCCGTATTTGAG (site GTGAGTACTCT) | 1.75
68 | GTGAGTGCATGGACCGGTTTTCCCGGTAATCCGTATTTGAG (site GTGAGTGCTCT) | 2.12
